{
  "source": "patent US20040235723A1",
  "about": "“Method of screening abc protein promoter/inhibitor” (priority 2001, published 2004)",
  "key": {"W303-1A + pYI": {"tested_on": "W303-1A + pYI", "assay": "MIC on SD-uracil agar medium, wild strain W303-1A + pYI", "assay_type": "cell-based", "details": "Saccharomyces cerevisiae, 48 h"}, "KHW1 + pYI": {"tested_on": "KHW1 + pYI", "assay": "MIC on SD-uracil agar medium, SYR1 gene disruption strain KHW1 + pYI", "assay_type": "cell-based, Saccharomyces cerevisiae", "details": "for MIC: Saccharomyces cerevisiae, 48 h; for Increase of sensitivity of SYR1 gene disruption strain (KHW1+pYI) compared with wild strain (W303-1A+pYI): ratio of MIC values", "method": "(§1) A double gene disruption strain KHW2 deficient in PDR5 (Δsyr1/erg3::HIS Δpdr5::LEU2), a double gene disruption strain KHW4 deficient in SNQ2 which is another drug-discharging ABC transporter of yeast (Δpdr5::LEU2 Δsnq2::HIS3) and a triple gene disruption strain […] deficient in PDR5 and SNQ2 (Δsyr1/erg3::HIS3 Δpdr5::LEU2 Δsnq2::HIS3) were prepared from an SYR1/ERG3 gene disruption strain KHW1 of Saccharomyces cerevisiae W303-1A (wild type) (Δsyr1/erg3::HIS3). Preparation of multiple gene disruption strains was carried out in such a manner that a host strain was transformed by a plasmid for disruption of gene where LEU2 gene or […] gene was a marker and the disrupted strain where each drug-resistant gene was disrupted by insertion of LEU2 or HIS3 gene was selected using recovery of requirement of leucine or histidine as an index. Each of the multiple gene disruption strains was confirmed by an increase in sensitivity to cycloheximide and cerulenin while gene disruption of PDR5 and SNQ2 was confirmed by a southern hybridization."}, "KHW3 + pYI": {"tested_on": "KHW3 + pYI", "assay": "MIC on SD-uracil agar medium, triple gene disruption strain KHW3 + pYI", "assay_type": "cell-based, Saccharomyces cerevisiae", "details": "for MIC: Saccharomyces cerevisiae, 48 h; for Increase of sensitivity of triple gene disruption strain KHW3 compared with wild strain: ratio of MIC values", "method": "as §1"}, "KHW3 + pYI-PDR5": {"tested_on": "KHW3 + pYI-PDR5", "assay": "MIC on SD-uracil agar medium, KHW3 + pYI-PDR5", "assay_type": "cell-based", "details": "Saccharomyces cerevisiae, 48 h", "method": "as §1"}, "KHW4 + pYI": {"tested_on": "KHW4 + pYI", "assay": "MIC on SD-uracil agar medium, KHW4 + pYI", "assay_type": "cell-based", "details": "Saccharomyces cerevisiae, 48 h", "method": "as §1"}, "KHW4 + pYI-PDR5": {"tested_on": "KHW4 + pYI-PDR5", "assay": "MIC on SD-uracil agar medium, KHW4 + pYI-PDR5", "assay_type": "cell-based", "details": "Saccharomyces cerevisiae, 48 h", "method": "as §1"}, "PDR5 transporter": {"biological_target": "T1, PDR5 transporter (Saccharomyces cerevisiae, UniProt P33302)", "T1 construct": "expressed in transfected cells; host or cells: Saccharomyces cerevisiae KHW3 (Δsyr1/erg3::HIS3 Δpdr5::LEU2 Δsnq2::HIS3) carrying plasmid pYI-PDR5", "T1 sequence (P33302 whole entry, the tested form may be a part)": "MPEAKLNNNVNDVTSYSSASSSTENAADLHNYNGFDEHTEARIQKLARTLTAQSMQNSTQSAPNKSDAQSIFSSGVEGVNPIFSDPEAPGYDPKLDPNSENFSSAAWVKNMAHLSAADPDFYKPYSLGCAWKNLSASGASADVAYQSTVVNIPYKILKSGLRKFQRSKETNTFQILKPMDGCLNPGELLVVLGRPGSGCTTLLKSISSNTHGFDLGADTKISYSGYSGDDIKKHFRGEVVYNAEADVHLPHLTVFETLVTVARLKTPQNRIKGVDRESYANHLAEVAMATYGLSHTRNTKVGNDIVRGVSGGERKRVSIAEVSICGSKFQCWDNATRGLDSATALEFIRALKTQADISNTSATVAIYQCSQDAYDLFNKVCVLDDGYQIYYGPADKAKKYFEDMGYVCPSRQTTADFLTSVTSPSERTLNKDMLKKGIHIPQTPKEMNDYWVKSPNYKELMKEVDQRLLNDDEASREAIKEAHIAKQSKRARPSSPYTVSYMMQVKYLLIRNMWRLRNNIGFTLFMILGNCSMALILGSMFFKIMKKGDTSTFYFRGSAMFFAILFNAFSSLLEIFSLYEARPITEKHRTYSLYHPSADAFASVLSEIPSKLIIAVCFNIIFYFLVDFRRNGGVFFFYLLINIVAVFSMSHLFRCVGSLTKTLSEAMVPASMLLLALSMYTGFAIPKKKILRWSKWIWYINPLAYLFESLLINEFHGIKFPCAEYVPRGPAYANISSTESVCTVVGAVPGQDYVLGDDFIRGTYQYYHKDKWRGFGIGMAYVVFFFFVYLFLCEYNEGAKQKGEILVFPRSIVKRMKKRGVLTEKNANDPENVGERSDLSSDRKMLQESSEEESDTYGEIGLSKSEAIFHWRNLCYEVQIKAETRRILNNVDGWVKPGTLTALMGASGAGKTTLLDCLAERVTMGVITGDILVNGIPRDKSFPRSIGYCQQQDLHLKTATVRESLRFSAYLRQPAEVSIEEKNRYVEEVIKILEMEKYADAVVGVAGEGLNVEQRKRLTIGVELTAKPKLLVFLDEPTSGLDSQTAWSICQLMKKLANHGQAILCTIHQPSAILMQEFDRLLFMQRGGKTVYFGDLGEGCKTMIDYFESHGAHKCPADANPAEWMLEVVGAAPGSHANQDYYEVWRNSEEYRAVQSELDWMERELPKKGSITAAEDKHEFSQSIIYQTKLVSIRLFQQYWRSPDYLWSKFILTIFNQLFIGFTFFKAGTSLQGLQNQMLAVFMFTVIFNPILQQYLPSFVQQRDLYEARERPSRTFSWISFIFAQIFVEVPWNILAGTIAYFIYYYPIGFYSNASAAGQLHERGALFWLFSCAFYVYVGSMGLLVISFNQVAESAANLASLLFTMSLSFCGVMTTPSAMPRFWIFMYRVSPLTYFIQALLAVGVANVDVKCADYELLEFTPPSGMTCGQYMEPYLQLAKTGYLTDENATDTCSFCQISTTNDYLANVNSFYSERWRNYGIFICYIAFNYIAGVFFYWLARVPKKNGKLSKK", "assay": "Agar well diffusion growth inhibition assay for PDR5 transporter inhibition, KHW3+pYI-PDR5", "assay_type": "cell-based", "details": "cycloheximide 0.04 μg/ml or cerulenin 0.4 μg/ml, without FK 506", "method": "(§2) Yeast cells grown on an SD-uracil medium were suspended in a soft agar dissolved in 4 ml at 50° C. so as to make 1×10^5 cells/ml, mixed after addition of a drug such as cycloheximide or cerulenin if necessary and layered on an SD-uracil medium containing the drug of the same concentration. After the soft agar was solidified, a pore of 8 mm diameter was formed on a part of the soft agar and 50 μl of the test substance were poured thereinto. The plate was incubated at 32° C. for 48 hours and […] of growth inhibition ring around the well was measured whereupon activity of the test substance for inhibiting the discharge of cycloheximide and cerulenin by the PDR transporter was evaluated.\n(§3) Unit for the growth inhibition activity was defined as follows. Thus, when a triple gene disruption strain KHW3 (Δsyr1/erg3::HIS3 Δpdr5::LEU2 Δsnq2::HIS3) was used and diameter of the inhibition ring measured by the above agar well diffusion method was plotted to logarithm of cycloheximide concentration where cycloheximide of 8-200 μg/ml was used as a standard substance, it was noted there was a linear relation as shown in FIG. 1. Growth inhibition activity showing an inhibition ring of 20 mm to KHW3 containing pYI was defined as 20 inhibition units per ml (IU/ml) and, using the above-mentioned standard curve of cycloheximide, inhibition units of test substances were calculated. […]"}, "KHW3+pYI": {"tested_on": "KHW3+pYI", "assay": "Agar well diffusion growth inhibition assay, cytotoxicity check on KHW3+pYI", "assay_type": "cell-based, Saccharomyces cerevisiae", "details": "FK 506 solution 12.5 μg/ml, 50 μl per well; 32° C., 48 hours; no drug in medium", "method": "as §2, §3"}},
  "note": "Read-outs that look alike come from different tables or passages of the source.",
  "data": [
    {"compound": "C[C@@H]1C[C@@H]([C@H](O)CC2CC(=O)NC(=O)C2)C(=O)[C@@H](C)C1", "note": "[Cycloheximide, cycloheximide]", "values": [
      {"measurement": "MIC", "setting": "W303-1A + pYI", "value": 0.16, "unit": "µg/mL"},
      {"measurement": "MIC", "setting": "KHW1 + pYI", "value": 0.04, "unit": "µg/mL"},
      {"measurement": "Increase of sensitivity of SYR1 gene disruption strain (KHW1+pYI) compared with wild strain (W303-1A+pYI)", "setting": "KHW1 + pYI", "value": 4, "unit": "fold"},
      {"measurement": "MIC", "setting": "KHW3 + pYI", "value": 0.01, "unit": "µg/mL"},
      {"measurement": "Increase of sensitivity of triple gene disruption strain KHW3 compared with wild strain", "setting": "KHW3 + pYI", "value": 16, "unit": "fold"},
      {"measurement": "MIC", "setting": "KHW3 + pYI-PDR5", "value": 0.16, "unit": "µg/mL"},
      {"measurement": "MIC", "setting": "KHW4 + pYI", "value": 0.02, "unit": "µg/mL"},
      {"measurement": "MIC", "setting": "KHW4 + pYI-PDR5", "value": "> 0.32", "unit": "µg/mL"},
      {"measurement": "Growth inhibition of KHW3+pYI-PDR5 by sole drug in medium", "setting": "PDR5 transporter", "value": "not inhibited"}
    ]},
    {"compound": "C/C=C/C/C=C/CCC(=O)[C@H]1O[C@H]1C(N)=O", "note": "[Cerulenin, cerulenin]", "values": [
      {"measurement": "MIC", "setting": "W303-1A + pYI; W303-1A + pYI (wild strain), 32° C., two days, read-out: MIC", "value": 0.8, "unit": "µg/mL"},
      {"measurement": "MIC", "setting": "KHW1 + pYI; KHW1 + pYI, 32° C., two days, read-out: MIC", "value": 0.4, "unit": "µg/mL"},
      {"measurement": "Increase of sensitivity of SYR1 gene disruption strain (KHW1+pYI) compared with wild strain (W303-1A+pYI)", "setting": "KHW1 + pYI", "value": 2, "unit": "fold"},
      {"measurement": "MIC", "setting": "KHW3 + pYI; KHW3 + pYI, 32° C., two days, read-out: MIC", "value": 0.2, "unit": "µg/mL"},
      {"measurement": "Increase of sensitivity of triple gene disruption strain KHW3 compared with wild strain", "setting": "KHW3 + pYI", "value": 4, "unit": "fold"},
      {"measurement": "MIC", "setting": "KHW3 + pYI-PDR5; KHW3 + pYI-PDR5, 32° C., two days, read-out: MIC", "value": 0.8, "unit": "µg/mL"},
      {"measurement": "MIC", "setting": "KHW4 + pYI; KHW4 + pYI, 32° C., two days, read-out: MIC", "value": 0.4, "unit": "µg/mL"},
      {"measurement": "MIC", "setting": "KHW4 + pYI-PDR5", "value": 0.6, "unit": "µg/mL"},
      {"measurement": "Growth inhibition of KHW3+pYI-PDR5 by sole drug in medium", "setting": "PDR5 transporter", "value": "not inhibited"}
    ]},
    {"compound": "C=CC[C@@H]1/C=C(\\C)C[C@H](C)C[C@H](OC)[C@H]2O[C@@](O)(C(=O)C(=O)N3CCCC[C@H]3C(=O)O[C@H](/C(C)=C/[C@@H]3CC[C@@H](O)[C@H](OC)C3)[C@H](C)[C@@H](O)CC1=O)[C@H](C)C[C@@H]2OC", "note": "[FK 506]", "values": [
      {"measurement": "Growth inhibition of KHW3+pYI by test substance alone (cytotoxicity)", "setting": "KHW3+pYI", "value": "did not inhibit the growth of KHW3+pYI"}
    ]}
  ]
}
